Laboratory results taken from PMC13001051, “TRPA1-kinase axis polarization: Nepetalactone drives pest repulsion and predator attraction via divergent PKC/CaMKII signaling” (Journal of Advanced Research, 2025).

Experiments:
Assay in all cases: Fluo-4 calcium flux in transfected HEK293T cells
MuTRPA1 = system: T1, MuTRPA1; type: cell-based, Megalurothrips usitatus; settings: agonist; DMSO as negative control
T1 construct: gene TRPA1; full-length ORF (1403 aa, 16 ankyrin repeats) in pcDNA3.1(+)-mCherry, HEK293T cells

DcTRPA1 = system: T2, DcTRPA1; type: cell-based, Diaphorina citri; settings: agonist; DMSO as negative control
T2 construct: gene TRPA1; full-length ORF (1073 aa, 14 ankyrin repeats) in pcDNA3.1(+)-mCherry, HEK293T cells

HaTRPA1 = target: T3, HaTRPA1 (Harmonia axyridis, UniProt Z9S2A3GZC9); type: cell-based
T3 construct: full-length in pcDNA3.1(+)-mCherry, HEK293T cells
T3 sequence (Z9S2A3GZC9 1-1276): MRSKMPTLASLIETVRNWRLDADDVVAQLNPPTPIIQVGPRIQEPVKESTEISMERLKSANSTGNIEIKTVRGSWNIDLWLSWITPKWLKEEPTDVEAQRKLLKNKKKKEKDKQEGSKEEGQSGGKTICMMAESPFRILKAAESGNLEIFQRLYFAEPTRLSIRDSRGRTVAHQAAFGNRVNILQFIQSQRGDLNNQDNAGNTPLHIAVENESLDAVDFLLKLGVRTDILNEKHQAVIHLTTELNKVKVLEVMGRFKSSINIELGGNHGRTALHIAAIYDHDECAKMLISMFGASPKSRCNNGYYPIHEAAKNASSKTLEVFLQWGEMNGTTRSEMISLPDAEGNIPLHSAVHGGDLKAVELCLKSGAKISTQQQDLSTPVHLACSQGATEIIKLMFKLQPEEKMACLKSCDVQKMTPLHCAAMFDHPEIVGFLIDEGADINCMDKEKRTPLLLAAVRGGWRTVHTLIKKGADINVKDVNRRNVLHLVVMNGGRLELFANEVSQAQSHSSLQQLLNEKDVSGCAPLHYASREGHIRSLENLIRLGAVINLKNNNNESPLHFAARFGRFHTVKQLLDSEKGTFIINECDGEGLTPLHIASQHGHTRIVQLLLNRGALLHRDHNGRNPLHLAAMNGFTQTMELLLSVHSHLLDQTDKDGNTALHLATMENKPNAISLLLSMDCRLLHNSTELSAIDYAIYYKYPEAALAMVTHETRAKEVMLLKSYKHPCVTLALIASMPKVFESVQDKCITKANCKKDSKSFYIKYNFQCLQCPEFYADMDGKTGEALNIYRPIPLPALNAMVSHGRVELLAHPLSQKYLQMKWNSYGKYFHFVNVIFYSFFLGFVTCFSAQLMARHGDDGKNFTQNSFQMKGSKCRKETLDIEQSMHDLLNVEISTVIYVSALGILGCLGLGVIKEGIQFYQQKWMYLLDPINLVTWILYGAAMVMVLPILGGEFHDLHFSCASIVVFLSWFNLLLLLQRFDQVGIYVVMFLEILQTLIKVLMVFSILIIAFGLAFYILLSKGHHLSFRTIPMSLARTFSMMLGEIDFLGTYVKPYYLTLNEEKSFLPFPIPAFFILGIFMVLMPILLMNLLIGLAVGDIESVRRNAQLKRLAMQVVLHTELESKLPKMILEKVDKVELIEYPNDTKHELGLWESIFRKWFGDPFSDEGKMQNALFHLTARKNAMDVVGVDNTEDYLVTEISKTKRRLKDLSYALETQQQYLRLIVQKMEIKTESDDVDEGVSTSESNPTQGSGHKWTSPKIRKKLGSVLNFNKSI
From the text: Fluo-4 calcium flux in transfected HEK293T cells on HaTRPA1 | Concentration-response curves of nepetalactone-induced calcium signaling in HEK293T cells heterologously expressing HaTRPA1 or PjTRPA1

PjTRPA1 = system: T4, PjTRPA1; type: cell-based, Propylea japonica; settings: agonist; DMSO as negative control
T4 construct: gene TRPA1; full-length in pcDNA3.1(+)-mCherry, HEK293T cells
From the text: Fluo-4 calcium flux in transfected HEK293T cells on PjTRPA1 | Concentration-response curves of nepetalactone-induced calcium signaling in HEK293T cells heterologously expressing HaTRPA1 or PjTRPA1

**Q.** For `CC1=COC(=O)C2C(C)CCC12` (stereo not shown) [nepetalactone], which EC50 (MuTRPA1) is on record?
**A.** The EC50 was 172 µM.

**Q.** And the EC50 (DcTRPA1)?
**A.** Its EC50 is 698 µM.

**Q.** And the EC50 (HaTRPA1)?
**A.** Its EC50 is 404 µM.

**Q.** What about the EC50 (PjTRPA1) of the same compound?
**A.** Its EC50 is 128 µM.
